Legend:
BACE1 [1] = molecular target: T1, BACE1 (Homo sapiens, UniProt P56817); assay: In Vitro Enzymatic BACE FRET (Fluorescence Resonance Energy Transfer) Assay; assay type: biochemical; details: read-out: BACE1 FRET assay
Procedure, shortened: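 Buffer 0.05 M acetate pH 4.2 with 10% DMSO final and 100 uM genapol; reaction started with 50 nM FRET peptide substrate (fluorophore/quencher flanking BACE cleavage site), incubated one hour. Stopped with Tris buffer raising pH to neutrality, then fluorescence read.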

BACE1 [2] = molecular target: T1, BACE1; assay: In Vitro BACE Cell-based Assay (HEK cell assay): Aβ40 in conditioned medium of cells stably expressing Amyloid Precursor Protein, sandwich ELISA; details: read-out: HEK cell assay
Procedure, shortened: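 HEK cells stably expressing APP were treated 24 h with compound in 10-point dose response starting at 100 or 10 μM (0.1% DMSO). Secreted Aβ40 quantified by sandwich ELISA (pAb40 capture, biotinylated 6E10 detection, europium time-resolved fluorescence), with IC50 derived from percent inhibition versus concentration.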

[3] = in vitro BACE FRET enzyme assay, IC50 class symbols
[4] = HEK cell-based assay, Aβ40 in conditioned medium, IC50 class symbols

T1 sequence (P56817 46-501, species assumed): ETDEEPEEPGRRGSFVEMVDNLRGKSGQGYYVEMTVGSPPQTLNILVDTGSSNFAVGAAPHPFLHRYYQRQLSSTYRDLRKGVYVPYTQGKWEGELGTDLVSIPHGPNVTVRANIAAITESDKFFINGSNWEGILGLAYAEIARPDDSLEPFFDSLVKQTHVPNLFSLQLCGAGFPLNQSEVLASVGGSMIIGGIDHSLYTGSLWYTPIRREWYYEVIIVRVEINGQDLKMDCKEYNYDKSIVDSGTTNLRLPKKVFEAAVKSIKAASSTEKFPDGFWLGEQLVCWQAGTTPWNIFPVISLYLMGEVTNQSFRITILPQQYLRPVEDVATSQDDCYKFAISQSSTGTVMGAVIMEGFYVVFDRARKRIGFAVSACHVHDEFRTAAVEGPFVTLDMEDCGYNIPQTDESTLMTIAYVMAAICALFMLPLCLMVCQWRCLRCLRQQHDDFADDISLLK

Structure (SMILES)	IC50 (BACE1 [1]) [µM]	IC50 (BACE1 [1]; Table IV, class symbols) [µM]	IC50 (BACE1 [2]; Table IV, class symbols) [µM]	further results
NC1=N[C@@]2(CO1)c1cc(-c3ccccc3F)ccc1Oc1ncc(N3CCOCC3)cc12 [compound 460]	< 0.1	–	–	IC50 (BACE1 [2]; HEK cells): 0.1 to 1 µM
COc1ccc2c(c1)[C@]1(COC(N)=N1)c1cc(NC(=O)c3cc(Cl)ccn3)ccc1O2 [compound 534]	–	1 to 5	> 5	–
CC1(COc2cnc3c(c2)[C@]2(COC(N)=N2)c2cc(-c4cc(F)ccc4F)ccc2O3)COC1 [compound 412]	–	–	–	IC50 (BACE1 [1]; [3]): < 0.1 µM; IC50 (BACE1 [2]; [4]): < 0.1 µM
COc1cc(F)c2c(c1)[C@@]1(COC(N)=N1)c1cc(-c3cncnc3)ccc1O2 [compound 582]	–	1 to 5	> 5	–
COCC[C@@H]1CN(c2ccc3c(c2)[C@]2(COC(N)=N2)c2cc(-c4cccnc4)ccc2O3)CCO1 [compound 421]	0.1 to 1	–	–	IC50 (BACE1 [2]; HEK cells): 0.1 to 1 µM
CC(C)(C)COc1ccc2c(c1)[C@]1(COC(N)=N1)c1cc(-c3cncnc3O)ccc1O2 [compound 884]	–	0.1 to 1	1 to 5	–
COC(C)(C)C#Cc1cnc2c(c1)[C@]1(COC(N)=N1)c1cc(-c3cccnc3)ccc1O2 [compound 603]	–	< 0.1	< 0.1	–
NC1=N[C@]2(CO1)c1cc(CCCCO)ccc1Oc1ccc(-c3cccnc3)cc12 [compound 194]	–	–	–	IC50 (BACE1 [1]; Table III, IC50's in uM ranges): < 0.1 µM; IC50 (BACE1 [2]; Table III, IC50's in uM ranges): < 0.1 µM
NC1=N[C@@]2(CO1)c1cc(Br)ccc1Oc1ccc(C#CC3(O)COC3)cc12 [compound 682]	1 to 5	–	–	IC50 (BACE1 [2]): > 5 µM
CC(C)(C)COc1ccc2c(c1)[C@@]1(COC(N)=N1)c1cc(-c3cc(Cl)ccc3F)cnc1O2 [Example 90, (5S)-3-(5-chloro-2-fluorophenyl)-7-(2,2-dimethylpropoxy)spiro[chromeno[2,3-b]pyridine-5,4′-[1,3]oxazol]-2′-amine]	–	–	–	IC50 (BACE1 [1]; Table II): < 0.1 µM; IC50 (BACE1 [2]; Table II, Aβ40, 24 h incubation): 1 to 5 µM
CC(C)(O)Cc1ccc2c(c1)[C@]1(COC(N)=N1)c1cc(-c3cccnc3)ccc1O2 [compound 659]	–	0.1 to 1	0.1 to 1	–
COC(C)(C)C#Cc1ccc2c(c1)[C@]1(COC(N)=N1)c1cc(-c3cccnc3)cnc1O2 [208b]	–	–	–	IC50 (BACE1 [1]; Table III, IC50's in uM ranges): < 0.1 µM; IC50 (BACE1 [2]; Table III, IC50's in uM ranges): < 0.1 µM
NC1=N[C@@]2(CO1)c1cc(-c3cccnc3)ccc1Oc1ccc(-c3nccs3)cc12 [compound 666]	< 0.1	–	–	IC50 (BACE1 [2]): < 0.1 µM
CC(C)(C)OC(=O)/C=C/c1ccc2c(c1)[C@]1(COC(N)=N1)c1cc(-c3cncnc3)ccc1O2 [compound 994]	0.1 to 1	–	–	IC50 (BACE1 [2]): 1 to 5 µM
CC(=O)COc1ccc2c(c1)[C@@]1(COC(N)=N1)c1cc(-c3cccnc3)cnc1O2 [compound 926]	0.1 to 1	–	–	IC50 (BACE1 [2]): 0.1 to 1 µM
NC1=N[C@]2(CO1)c1cc(-c3cc4ccccc4s3)ccc1Oc1ncccc12 [compound 618]	–	> 5	1 to 5	–
CC(C)(C)C#Cc1cnc2c(c1)[C@@]1(COC(N)=N1)c1cc(Oc3ccccn3)ccc1O2 [compound 927]	0.1 to 1	–	–	IC50 (BACE1 [2]): 1 to 5 µM
CC(C)(C)CCOc1nccc2c1C1(COC(N)=N1)c1cc(-c3cncnc3)ccc1O2 (stereo not shown) [Example 109, 1-(3,3-Dimethylbutoxy)-8-(pyrimidin-5-yl)-5′H-spiro[chromeno[3,2-c]pyridine-10,4′-oxazol]-2′-amine]	–	–	–	IC50 (BACE1 [1]; Table III, IC50's in uM ranges): 0.1 to 1 µM; IC50 (BACE1 [2]; Table III, IC50's in uM ranges): 0.1 to 1 µM
CCOC(=O)c1ccc(-c2ccc3c(c2)[C@]2(COC(N)=N2)c2cc(-c4cccnc4)ccc2O3)o1 [compound 725]	< 0.1	–	–	IC50 (BACE1 [2]): 0.1 to 1 µM
NC1=N[C@]2(CO1)c1cc(C3=CCOCC3)ccc1Oc1ccc(C3CC3)cc12 [compound 756]	0.1 to 1	–	–	IC50 (BACE1 [2]): 1 to 5 µM
CC(C)C[C@@H]1CN(c2ccc3c(c2)[C@]2(COC(N)=N2)c2cc(-c4cccnc4)ccc2O3)CCO1 [compound 360]	–	–	–	IC50 (BACE1 [1]; [3]): 0.1 to 1 µM; IC50 (BACE1 [2]; [4]): 0.1 to 1 µM
NC1=N[C@@]2(CO1)c1cc(-c3ccccc3)ccc1Oc1ncc(C3=CCOCC3)cc12 [compound 580]	–	< 0.1	< 0.1	–
CC(C)(C)C#Cc1ccc2c(c1)[C@]1(COC(N)=N1)c1cc(C#CC(C)(C)C)cnc1O2 [compound 898]	–	0.1 to 1	> 5	–
NC1=N[C@]2(CO1)c1cc(C3=CCOC3)ccc1Oc1ccc(-c3cncnc3)cc12 [compound 448]	< 0.1	–	–	IC50 (BACE1 [2]; HEK cells): < 0.1 µM
COc1ccc2c(c1)[C@@]1(COC(N)=N1)c1cc(-c3cncnc3)cc(F)c1O2 [152b]	–	–	–	IC50 (BACE1 [1]; Table III, IC50's in uM ranges): 1 to 5 µM; IC50 (BACE1 [2]; Table III, IC50's in uM ranges): 1 to 5 µM
CC(C)(C)CCc1ccc2c(c1)[C@@]1(COC(N)=N1)c1cc(-c3cccnc3)cnc1O2 [compound 161]	–	–	–	IC50 (BACE1 [1]; Table III, IC50's in uM ranges): < 0.1 µM; IC50 (BACE1 [2]; Table III, IC50's in uM ranges): < 0.1 µM

From patent US8426447B2, “Spiro-tricyclic ring compounds as beta-secretase modulators and methods of use” (Amgen Inc., priority 2008, dated 2013)
